Assays:
[1] = tested on: human HDAC enzymes from nuclear extract of HeLa cells; assay: HDAC inhibitor screening assay (HeLa nuclear extract); format: biochemical; details: 6-PN 5 μM, 8-PN 10 μM
Description: FIG. 2: In silico docking analysis with 6-PN and 8-PN illustrates the inhibitory potential on human-derived HDACs of class I and II. (A) Results of the in silico docking analysis of 6-PN and 8-PN with crystal structures of HDAC2 (class I) and HDAC4 (class II). […] Both molecules are predicted to interact with the zinc ion as well as other residues of the catalytic center. Docking analyses of 6-PN and 8-PN in the individual HDAC binding pockets were performed using GOLD (version 4.1.2) and MOE (version 2009.10). (B) Overall HDAC inhibition in cellular extracts of the human cell line HeLa by increasing concentrations of 6-PN and 8-PN (5 μM, 10 μM, 20 μM, 50 μM and 100 μM). As reference inhibitor 100 μM SAHA was used. Every concentration was tested three times in triplicates. Shown are the mean±SD. (C) Specific fluometric profiling assay using recombinant human HDACs of classes I, II and IV. Specific inhibition values were generated for the treatment with 100 μM 6-PN and 8-PN. TSA was used as reference inhibitor (HDAC1, 2, 3, 6, 10, 11: 10 nM; HDAC4, 8, 9: 1 μM; HDAC5, 7:10 μM). The inhibition vales for every HDAC were yielded by one experiment performed in duplicates Shown are the mean±S.A. […]

[2] = tested on: histon protein H3 acetylation in SK-MEL-28 melanoma cells; assay: Western blot of acetylated histon H3, SK-MEL-28; format: cell-based, human; details: SK-MEL-28, 100 μM, two hours, vs. DMSO control
Description: FIG. 4: 6-PN and 8-PN induce a hyper acetylation in SK-MEL-28 melanoma cells. Western blot analysis of acetylated histon complex H3 in cellular lysates of BLM and SK-MEL-28 cells treated with 100 μM 6-PN or 8-PN for 1, 2, 4, 12 and 24 h, or with 100 μM SAHA (as reference HDACi) for 24 h. Equal protein loading was verified by vinculin staining (lower rows). At 24 hours (BLM) and 2 hours (SK-MEL-28) after the PN treatment a prominent up-regulation of ac-H3 is detectable. The protein expression levels were estimated performing a densitometric analysis.
The following antibodies were used: Anti-Vinculin and Anti-Actin (1:5000, Sigma-Aldrich), Anti-Acetyl-Histon H3 (1:5000, Millipore, Billerica, USA), Anti-Caspase-3 (1:1000), Anti-AKT, Anti-pAKT, Anti-ERK, Anti-pERK, […], Anti-p70S6 Kinase, and Anti-pS6 protein (1:1000), all from Cell Signaling, Frankfurt, Germany), Anti-LC3 (1:5000, Sigma-Aldrich).
An incubation of cells with HDACi induces generally a hyperacetylation of histon proteins. Therefore, the acetylation status of the histon protein H3 after treatment with 6-PN or 8-PN was investigated. Corresponding to the HDAC screening results, a direct effect was monitored. […] SAHA was used as control HDACi (at 100 μM, 24 hours treatment).

SK-MEL-28 melanoma cells = assay: Apoptosis antibody array (35 proteins); format: cell-based, human; details: SK-MEL-28, 100 μM, 4 hours
Description: Apoptosis assay (35 proteins) performed on lysates of SK-MEL-28 melanoma cells 4 hours after treatment with 100 μM of 6-PN or 8-PN. Protein expression levels were estimated performing a densitometric analysis. Neither 6-PN nor 8-PN yielded a significant change of expression of the analyzed proteins involved in apoptosis.
Testing of apoptosis induction was performed with the human Proteom-Profiler-Apoptosis-Antibody-Array-Kit (R & D Systems, Wiesbaden, Germany) as described by the manufacturer after treatment of SK-MEL-28 melanoma cells with 100 μM 6-PN or 100 μM 8-PN for 4 hours.
To further analyze the possibility of apoptosis induction, an extensive apoptosis assay was performed on SK-MEL-28 melanoma cells 4 hours after treatment with 100 μM 6-PN or 8-PN (FIG. 9). […] This was verified by FACS cell cycle analyses to screen for a possible increase of the sub-G1 fraction of cells (apoptotic cells) or for the induction of a G2 arrest (inhibition of proliferation). […] To further differentiate between the induction of apoptosis and/or necrosis an PI/Annexin V staining of SK-MEL-28 and BLM cells was performed 4 hours and 24 hours after the treatment with 6-PN or 8-PN; 10 μM staurosporin (6 hours treatment) was used as positive control for the induction of apoptosis; DMSO treatment was used as vehicle control. The cells were then analyzed by FACS.

[3] = tested on: PI (3) K/Akt-signal path in MCF-7 cells; details: MCF-7 cells in vitro; cited from earlier work
[4] = tested on: breast cancer cells MCF-7; details: cited from earlier work

CC(C)=CCc1c(O)cc(O)c2c1OC(c1ccc(O)cc1)CC2=O (centres unmarked) [8-PN, 5,7-Dihydroxy-2-(4-hydroxy-phenyl)-8-(3-methyl-but-2-enyl)-chroman-4-one]
HDAC inhibitory effect at low concentration [1]: showed inhibitory effects
histon complex H3 acetylation [2]: massive increase
apoptosis induction (expression of 35 apoptosis proteins, densitometric) (SK-MEL-28 melanoma cells): not apoptosis related
activation of the PI (3) K/Akt-signal path [3]: directly inhibits
effects on breast cancer cells compared with 17β-Estradiol [4]: imitates the effects of 17β-Estradiol
